The source of these data is patent publication US20030186892A1, “Enhancement of endogenous gonadotropin production” (priority 2002, published 2003).

The conditions of series [1]: in vivo.
Description: A study was conducted to determine the bioavailability of leuprolide acetate when it was administered by the sublingual route. The study was conducted in fifteen healthy postmenopausal or surgically sterilized female volunteers. This study was conducted according to a single-dose, fasting, four-period, open-label, randomized design. […] 4.5 mg or a 1 mg subcutaneous dose. […] Five-ml plasma samples were collected by venipuncture prior to the study and at suitable time intervals after dosing. Plasma leuprolide acetate concentrations data was tabulated and the descriptive statistics were computed.
Series [2] relates to testosterone. Particulars: 5 mg b.i.d. (Group B) compared with 10 mg q.d. (Group C), oral.
Description: Twenty subjects were assigned to each dosing group. Dosing groups were dosed sequentially, beginning with 5 mg q.d. group (Group A). Dosing for the 5 mg b.i.d. group (Group B) commenced 2 weeks after the initiation of Group A and the dosing for the 10 mg q.d. group (Group C) began 2 weeks after initiation of the 5 mg b.i.d. group. […] For all measurements, the final value obtained before the start of the study drug administration was used as the baseline value for that variable.

`CCNC(=O)[C@@H]1CCCN1C(=O)[C@H](CCCNC(=N)N)NC(=O)[C@H](CC(C)C)NC(=O)[C@@H](CC(C)C)NC(=O)[C@H](Cc1ccc(O)cc1)NC(=O)[C@H](CO)NC(=O)[C@H](Cc1c[nH]c2ccccc12)NC(=O)[C@H](Cc1c[nH]cn1)NC(=O)[C@@H]1CCC(=O)N1` [leuprolide acetate]: in series [1], the “Administered sublingual dose absorbed compared to subcutaneous reference” value was “Approximately 1%”. The “Elevation of plasma testosterone, comparison of regimens” value in series [2] is listed as “more significant elevation of plasma testosterone”.
